# Where two headings read alike, the source gives them in different places.
# Tests used:
# diabetic (ob/ob) mice = assay: Blood glucose lowering activity in diabetic (ob/ob) mice; assay type: in vivo; details: Mus musculus, po
# Experimental: The procedures used and results obtained are briefly described below. […]
# In each test procedure, mice [Male or female ob/ob (C57 B1/6J) and their lean litermates (ob/+ or +/+, Jackson Laboratories) ages 2 to 5 months (10 to 65 g)] of a similar age were randomized according to body weight into 4 groups of 10 mice. The mice were housed 5 per cage and are maintained on normal rodent chow with water ad libitum. Mice received test compound daily by gavage (suspended in 0.5 ml of 0.5% methyl cellulose); dissolved in the drinking water; or admixed in the diet. The dose of compounds given ranges from 2.5 to 200 mg/kg body weight/day. The dose is calculated based on the fed weekly body weight and is expressed as active moiety. […] Control mice received vehicle only.
# On the morning of Day 4, 7 or 14 two drops of blood (approximetly 50 ul) were collected into sodium fluoride containing tubes either from the tail vein or after decapitation. For those studies in which the compound was administered daily by gavage the blood samples were collected two hours after compound administration. […]
# Analysis of variance followed by Dunett's Comparison Test (one-tailed) are used to estimate the significant difference between the plasma glucose values from the control group and the individual compound treated groups (CMS SAS Release 5.18).
# [1] = target: rat hepatic microsomal PTPases; details: rat hepatic microsomal PTPase, dodecaphosphopeptide substrate 50 uM
# [2] = target: T1, recombinant rat protein tyrosine phosphatase, PTP1B (rPTP1B) (Rattus norvegicus, UniProt P20417); assay type: biochemical; details: for % change from control at 10 μM: 10 μM compound, rPTP1B
# T1 sequence (P20417 1-432): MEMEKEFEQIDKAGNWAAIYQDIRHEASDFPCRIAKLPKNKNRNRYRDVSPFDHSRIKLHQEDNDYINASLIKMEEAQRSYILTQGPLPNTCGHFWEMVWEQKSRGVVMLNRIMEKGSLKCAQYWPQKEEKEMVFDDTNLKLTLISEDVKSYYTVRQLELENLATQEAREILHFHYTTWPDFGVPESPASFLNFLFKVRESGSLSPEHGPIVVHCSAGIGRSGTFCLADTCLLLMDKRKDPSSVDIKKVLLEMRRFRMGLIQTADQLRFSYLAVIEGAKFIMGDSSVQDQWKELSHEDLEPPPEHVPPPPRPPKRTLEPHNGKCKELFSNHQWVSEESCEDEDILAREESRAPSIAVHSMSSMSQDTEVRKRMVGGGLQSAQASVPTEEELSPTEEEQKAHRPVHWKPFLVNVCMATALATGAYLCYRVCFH
# [3] = 96 h, plasma glucose on Day 4, 7 or 14, suffix a = no significant activity at this dose, read-out: % Change Glucose from Vehicle
# [4] = suffix a = no significant activity at this dose, read-out: % Change Insulin from Vehicle
IC50 [1],% change from control at 10 μM [2],melting point,Compound,change in vivo at 100 mg/kg (diabetic (ob/ob) mice; [3]),change in vivo at 100 mg/kg (diabetic (ob/ob) mice; [4]),IC50 [2]
17.5 µM,−61 (rPTP1B) %,153 to 154 °C,"CCc1oc2ccccc2c1C(=O)c1c(Br)cc(Br)c(O)c1Br [Example 8, (2-Ethyl-benzofuran-3-yl)-(2,4,6-tribromo-3-hydroxy-phenyl)-methanone]",-3.3%,-31.2%,–
22.7 µM,−99 (rPTP1B) %,153 to 154 °C,"O=C(c1cc(I)c(O)c(I)c1)c1c(Cc2ccccc2)oc2ccccc12 [Example 9, (2-Benzyl-benzofuran-3-yl)-(4-hydroxy-3,5-diiodo-phenyl)-methanone]",-37.1%,-73.7%,–
40.4 µM,−34 (rPTP1B) %,175 to 177 °C,"CCc1oc2ccc(Cl)cc2c1C(=O)c1cc(Br)c(OCC(=O)O)c(Br)c1 [Example 20, [2,6-dibromo-4-(5-chloro-2-ethyl-1-benzofuran-3-carbonyl)-phenoxy]-acetic acid]",–,–,–
26.3 µM,−53 (rPTP1B) %,163 to 164 °C,"O=C(O)COc1c(Br)cc(C(=O)c2c(CCc3ccccc3)oc3ccccc23)cc1Br [Example 19, [2,6-Dibromo-4-(2-phenethyl-benzofuran-3-carbonyl)-phenoxy]-acetic acid]",–,–,–
28.4 µM,−97 (rPTP1B) %,144 to 146 °C,"O=C(O)COc1c(I)cc(C(=O)c2c(Cc3ccccc3)oc3ccccc23)cc1I [Example 17, [4-(2-Benzyl-benzofuran-3-carbonyl)-2,6-diiodo-phenoxy]-acetic acid]",–,–,–
30.7 µM,−60 (rPTP1B) %,–,"CCc1oc2ccccc2c1C(=O)c1cc(I)c(O)c(I)c1 [Example 18, (2-ethyl-benzofuran-3-yl)-(4-hydroxy-3,5-diiodo-phenyl)-methanone]",-39.6%,-83.6%,–
34.3 µM,−64 (rPTP1B) %,150 to 151 °C,"CCc1oc2ccccc2c1C(=O)c1cc(Br)c(O)c(Br)c1O [Example 4, (3,5-Dibromo-2,4-dihydroxy-phenyl)-(2-ethyl-benzofuran-3-yl)-methanone]",-19.8%,-61.8%,–
–,–,–,"CC1(COc2ccc(CC3SC(=O)NC3=O)cc2)CCCCC1 (stereo not drawn) [Ciglitazone, 5-(4-(1-methylcyclohexylmethoxy)benzyl)-2,4-dione, reference compound]",-43%,-39%,–
34.5 µM,−35 (rPTP1B) %,210 to 212 °C,"O=C(c1cc(Br)c(OCP(=O)(O)O)c(Br)c1)c1c(Cc2ccccc2)sc2ccccc12 [Example 21, [4-(2-benzyl-benzo[b]thiophen-3-carbonyl)-2,6-dibromo-phenoxymethyl]-phosphonic acid]",–,–,–
27.1 µM,−64 (rPTP1B) %,–,"CCc1oc2ccc(Cl)cc2c1C(=O)c1cc(Br)c(O)c(Br)c1 [Example 13, (5-Chloro-2-ethyl-benzofuran-3-yl)-(3,5-dibromo-4-hydroxy-phenyl)-methanone]",-12%,-74.5%,–
24.2 µM,−90 (rPTP1B) %,–,"CCCCc1oc2ccccc2c1C(=O)c1cc(Br)c(O)c(Br)c1 [Example 6, (2-Butyl-benzofuran-3-yl)-(3,5-dibromo-4-dihydroxy-phenyl)-methanone]",-40.6%,-70.4%,–

Compound,IC50 [1],% change from control at 10 μM [2],melting point,change in vivo at 100 mg/kg (diabetic (ob/ob) mice; [3]),change in vivo at 100 mg/kg (diabetic (ob/ob) mice; [4]),IC50 [2]
"CCc1oc2ccccc2c1C(=O)c1cc(Br)c(O)c(Br)c1 [Example 1, (2-Ethyl-benzofuran-3-yl)-(3,5-dibromo-4-hydroxy-phenyl)-methanone]",70.1 µM,–,–,-44.6%,-89.5%,25.8 µM

# Source: patent US6844358B2, “Phenyl oxo-acetic acids useful in the treatment of insulin resistance and hyperglycemia” (Wyeth, priority 1998, dated 2005)
